This data set is described as follows: in vitro. Conditions: human, hela cells, % viability.
In the case of `CCCc1cc(C(=O)N2CCCN(Cc3cnn(CC)c3)CC2)[nH]n1` [CBK305293], the viability at 28.5 h, 10 µM came to 92.3%.
With `O=C(c1cccs1)N1CCCN(Cc2cn3ccccc3n2)CC1` [CBK305304] the figure was 102%; with `CN(Cc1nnc(C2CC2)n1C)C1CCN(CCCc2cn[nH]c2)C1` (stereo not drawn) [CBK305305], 85.2%.
With `Cc1ccccc1Nc1nc(N)nc(CN(CCC#N)CC2CCC2)n1` [CBK305308] the figure was 89.3%; with `CC(C)(C)OC(=O)N1CCCN(Cc2nc(-c3cccnc3)no2)CC1` [CBK305309], 97.2%; with `CC(c1ccc(F)c(F)c1)N(C)C(=O)Cn1cnnc1[S+](C)[O-]` (stereo not drawn) [CBK305311], 105%.
Take `CC(C)NC(=O)Nc1ccc(C(=O)N(CCC#N)C(C)C2CC2)cc1` (stereo not drawn) [CBK305312]: the viability at 28.5 h, 10 µM is 110%.
With `Cc1cc(C)c(C(=O)N2CCN(CCNC(=O)C3CCCC3)CC2)[nH]1` [CBK305315], the viability at 28.5 h, 10 µM was 89.5%.
With `CCn1ncc2c1CCCC2NC1CCCN(c2cnn(C)c2)C1=O` (stereo not drawn) [CBK305316] the figure was 88.7%; with `Cc1nc(C2CN(Cc3c(Cl)ccc4cccnc34)CCO2)no1` (stereo not drawn) [CBK305317], 82%; with `CC(C(=O)NCCC1=CCCCC1)N1CCOC(Cn2cccn2)C1` (stereo not drawn) [CBK305319], 101%.
As for `CCN(CC)CCN(C(=O)c1cnn(C)c1C)C1CCS(=O)(=O)C1` (stereo not drawn) [CBK305321], the viability at 28.5 h, 10 µM was 89.1%.
For `CSC1CCC(N(C)C(=O)NCCc2cn3cccc(C)c3n2)C1` (stereo not drawn) [CBK305324], the viability at 28.5 h, 10 µM was 84.5%.
To `CC(C)N(Cc1cnn(C)c1)C(=O)c1cc(C2CC2)nc2ccccc12` [CBK305325] belongs 103%; to `CCc1nc(CN(C)C2CCN(CC(=O)NCc3ccco3)C2)no1` (stereo not drawn) [CBK305328], 111%.
As to `CC(C)c1nc(CC(=O)N2CCOC(c3ccc(F)cc3)C2)cs1` (stereo not drawn) [CBK305334], the viability at 28.5 h, 10 µM stood at 93.9%.
For `CN(C(=O)CN1CCOC(Cn2cccn2)C1)C1(C#N)CCCCC1` (stereo not drawn) [CBK305335], the viability at 28.5 h, 10 µM is 97.3%.
With `CC(C(=O)NC1(C#N)CCCCC1)N1CCOC(Cn2cccn2)C1` (stereo not drawn) [CBK305337] the figure was 88.9%; with `COCCn1nc(C(=O)N(C)Cc2nc3ccccc3s2)ccc1=O` [CBK305338], 91.8%.
With `Cc1cc(C)n(CC(C)CNC(=O)Cc2csc(C(C)(C)C)n2)n1` (stereo not drawn) [CBK305340] the figure was 96.1%; with `Cc1csc(N2CCN(C(=O)CCc3nc(C(C)C)no3)CC2)n1` [CBK305341], 99.4%.
To `Cc1cc(C)n(CC(C)NC(=O)N2CCC(Oc3cccnc3)C2)n1` (stereo not drawn) [CBK305342] belongs 92.1%; to `Cc1cc(C)n(CC2CN(CC(=O)NCc3ccccn3)CCO2)n1` (stereo not drawn) [CBK305344], 107%.
In the case of `Cn1cc(CN2CCCN(C(=O)CCCc3ccccn3)CC2)cn1` [CBK305347], the viability at 28.5 h, 10 µM worked out at 87.3%.
To `Cc1nnnn1-c1cc(NC(=O)NCCCn2ccnc2)ccc1F` [CBK305349] belongs 92.1%.
For the molecule `CCN(CC)C(=O)c1cccc(NC(=O)Cc2cn3ccsc3n2)c1` [CBK305353], the viability at 28.5 h, 10 µM came to 85.6%.
Turning to `CN(Cc1ccc(O)cc1)C(=O)NC1CCCc2c1cnn2CCO` (stereo not drawn) [CBK305354], the viability at 28.5 h, 10 µM is 86.3%.
As to `Cc1ccc(OCc2nc(C)c(C(=O)N3CCCC(C)C3)s2)cc1` (stereo not drawn) [CBK305356], the viability at 28.5 h, 10 µM came to 94.3%.
With `CCc1cnc(CN(C)C2CCN(Cc3cccc(C(N)=O)c3)C2)o1` (stereo not drawn) [CBK305357], the viability at 28.5 h, 10 µM is 90.5%.
Consider `CC(C(=O)NC1(C#N)CCCCC1)N1CCOC(Cn2cncn2)C1` (stereo not drawn) [CBK305359], for which the viability at 28.5 h, 10 µM came to 101%.
In the case of `CC(C)c1cccc(-n2cc(O)c(C(=O)NCCCn3cccn3)n2)c1` [CBK305360], the viability at 28.5 h, 10 µM was 113%.
To `NC(=O)c1cc(C2CCCN(CC(=O)NCc3cccs3)C2)n[nH]1` (stereo not drawn) [CBK305361] belongs 86.6%; to `Cc1nc(CN2CCCN(C(=O)c3cccc(C#N)c3)CC2)cs1` [CBK305363], 83.6%.
To `COc1ccc(CN2CCCN(C(=O)c3ccnc(Cl)c3)CC2)cc1` [CBK305364] belongs 85.4%; to `CN(Cc1ccncc1)C(=O)c1cccc(S(=O)(=O)NCC2CC2)c1` [CBK305365], 95.6%.
Regarding `COCCN(Cc1cn2cccc(C(=O)OC)c2n1)Cc1ccco1` [CBK305366], the viability at 28.5 h, 10 µM turned out to be 97.8%.
With `Cc1cc(N2CCN(C(=O)CCc3ccco3)CC2)nc(C(C)C)n1` [CBK305367] the figure was 106%.
`Cn1cc(CN2CCCN(C(=O)c3ccc4ccccc4n3)CC2)cn1` [CBK305369]: the viability at 28.5 h, 10 µM amounted to 102%.
To `COc1ccc(CCNC(=O)CN2CCCC2c2cnn(C)c2)cc1` (stereo not drawn) [CBK305371] belongs 84.2%.
With `CCn1cc(CN2CCCN(C(=O)c3cccn(C)c3=O)CC2)cn1` [CBK305375] the figure was 106%; with `COc1cccc(C(=O)NCCC(=O)N2CCc3sccc3C2)c1` [CBK305376], 108%.
On to `CC(=O)NC(CC(=O)N1CCc2sccc2C1C)c1ccc(C)cc1` (stereo not drawn) [CBK305378], for which the viability at 28.5 h, 10 µM was found to be 89.2%.
To `CCN(Cc1ccccn1)C(=O)NC(C)c1cccc(NC(C)=O)c1` (stereo not drawn) [CBK305380] belongs 92.9%.
Take `Cc1nc(C2CN(Cc3cc4ccccc4nc3Cl)CCO2)no1` (stereo not drawn) [CBK305381]: the viability at 28.5 h, 10 µM is 96.5%.
In the case of `O=c1n(CCCNCc2ccc(Cl)cc2Cl)nc2n1CCCC2` [CBK305382], the viability at 28.5 h, 10 µM turned out to be 97.2%.
Regarding `Cc1nn(C)c(C)c1OCC(=O)Nc1cc(C(C)(C)C)sc1C#N` [CBK305383], the viability at 28.5 h, 10 µM was found to be 101%.
To `Cc1nc(C2CN(Cc3ccc(Cl)c4cccnc34)CCO2)no1` (stereo not drawn) [CBK305384] belongs 102%; to `COc1ccc(OC)c(-n2nnnc2SCC2CCCN(C)C2)c1` (stereo not drawn) [CBK305386], 84.2%.
For the molecule `Cn1cc(-c2nc(C3CCCCCN3C(=O)c3cccnc3)no2)cn1` (stereo not drawn) [CBK305387], the viability at 28.5 h, 10 µM is 87.9%.
For the molecule `Cc1cc(C)n(CC(C)CNC(=O)NCCN2CCCCCC2=O)n1` (stereo not drawn) [CBK305389], the viability at 28.5 h, 10 µM worked out at 92%.
Turning to `Cc1nc2sccn2c1CN1CCCC(C(=O)N2CCOCC2)C1` (stereo not drawn) [CBK305390], the viability at 28.5 h, 10 µM came out at 97.6%.
To `COCCNC(=O)c1cc(-c2ccccc2C)nc2c1cnn2C(C)C` [CBK305392] belongs 111%; to `Cn1cc(CCNC(=O)N2CCCN(Cc3cccs3)CC2)cn1` [CBK305393], 89.1%.
Regarding `COC(=O)c1ccc(N2CCN(Cc3ccc(CO)o3)C(C)C2)cc1` (stereo not drawn) [CBK305394], the viability at 28.5 h, 10 µM was 83.9%.
With `COCC(=O)Nc1c[nH]nc1C1CCCN(c2cccc(F)c2C#N)C1` (stereo not drawn) [CBK305395] the figure was 86%.
To `CC1(c2ccco2)NC(=O)N(Cc2ncc(-c3cccs3)o2)C1=O` (stereo not drawn) [CBK305398] belongs 98.8%; to `CCOC(=O)c1cnn(C2CCCN(Cc3cc(C#N)cs3)C2)c1` (stereo not drawn) [CBK305399], 101%.
As to `CCNS(=O)(=O)C1CCN(c2cc(C#N)ccc2C(F)(F)F)C1` (stereo not drawn) [CBK305402], the viability at 28.5 h, 10 µM came out at 96.2%.
With `Cc1c(C(C)NCC(O)c2ccncc2)cnn1-c1ccc(C#N)cc1` (stereo not drawn) [CBK305403] the figure was 85%.
As to `CC(C(=O)Nc1cccc(F)c1)N1CCN(Cc2cccnc2)CC1` (stereo not drawn) [CBK305408], the viability at 28.5 h, 10 µM is 109%.
Consider `O=C(NCC1CCN(c2ccc(F)c(F)c2)C1)c1c[nH]nc1C1CC1` (stereo not drawn) [CBK305409], for which the viability at 28.5 h, 10 µM was found to be 91%.
As for `Cc1cccc(CN2CCC(NC(=O)c3cccc4nn[nH]c34)CC2)c1` [CBK305411], the viability at 28.5 h, 10 µM was found to be 92.1%.
On to `COc1ccc(C)cc1CN(C)C(=O)c1cccc(NC(=O)C2CC2)c1` [CBK305414], for which the viability at 28.5 h, 10 µM was found to be 98.5%.
With `Cc1c(CN(C)C(=O)c2cccc(NC(=O)C3CCCO3)c2)cnn1C` (stereo not drawn) [CBK305416] the figure was 103%; with `CCCCNc1cc(N2CCOC(Cn3cc(C)cn3)C2)nc(N)n1` (stereo not drawn) [CBK305417], 53.3%.
With `CCn1cc(C2CN(S(=O)(=O)c3ccc(F)c(C)c3)CCO2)cn1` (stereo not drawn) [CBK305419] the figure was 91.3%; with `CCc1ccccc1S(=O)(=O)N1CCOC(c2cnn(CC)c2)C1` (stereo not drawn) [CBK305421], 94.8%.
To `Cc1ccc(C(F)(F)F)cc1NCc1csc(C2CCCO2)n1` (stereo not drawn) [CBK305424] belongs 92.8%; to `CN(Cc1ccsc1)C(=O)c1cccc(S(=O)(=O)NC(C)(C)C)c1` [CBK305425], 81.2%; to `CCOC(=O)C(CNS(=O)(=O)c1ccc(F)cc1C)Cc1ccccc1` (stereo not drawn) [CBK305427], 92.3%.
As for `CN(Cc1cccnc1)CC1CCCN(C(=O)Nc2ccc(Cl)cc2)C1` (stereo not drawn) [CBK305428], the viability at 28.5 h, 10 µM was determined as 83.9%.
In the case of `CCCCc1noc(C(C)S(=O)(=O)Cc2csc(CCCC)n2)n1` (stereo not drawn) [CBK305431], the viability at 28.5 h, 10 µM was determined as 110%.
Consider `Cc1ccc(S(=O)(=O)NC(C)(C)C)cc1C(=O)N(C)Cc1cnn(C)c1` [CBK305433], for which the viability at 28.5 h, 10 µM amounted to 86.9%.
Turning to `CC(C)Oc1ccccc1CN(C)C(C)c1ccc(S(N)(=O)=O)cc1` (stereo not drawn) [CBK305436], the viability at 28.5 h, 10 µM is 94.4%.
Turning to `CSCc1nc2ccccc2n1CC(=O)N(CCC#N)Cc1ccco1` [CBK305440], the viability at 28.5 h, 10 µM was determined as 97.7%.
Turning to `CC(C)(O)c1cn(C2CN(C(=O)c3sccc3-c3ccccc3)C2)nn1` [CBK305442], the viability at 28.5 h, 10 µM came to 87.6%.
`CCOC(=O)C(NCc1nc(-c2cccc(C(F)(F)F)c2)no1)C(C)C` (stereo not drawn) [CBK305445]: the viability at 28.5 h, 10 µM is 93%.
Regarding `Cc1c(C(=O)N2CC(n3cc(C(C)O)nn3)C2)sc2ccc(F)cc12` (stereo not drawn) [CBK305446], the viability at 28.5 h, 10 µM stood at 94.5%.
On to `Cc1ccc(Cc2cnc(NC(=O)NCCN3CCOCC3)s2)cc1F` [CBK305449], for which the viability at 28.5 h, 10 µM was found to be 93.6%.
With `O=C(NCc1ccsc1)N1CCCN(Cc2ccc(Cl)cc2)CC1` [CBK305450] the figure was 86.4%; with `COc1ccc(C)cc1C1(CNC(=O)N2CCC(C)(O)C2)CCOCC1` (stereo not drawn) [CBK305452], 102%.

These data come from paper PMC12040169 (PLOS Biology, 2025).
